Structures can show the parent of a compound that is named as a salt.
Biological target: muscarinic acetylcholine receptors
Assay: Inhibition of specific binding of 3H-Oxotremorine-M (OXO BINDING) in vitro, rat cortex
Design: species or system male Wistar rats
Conditions: rat cortex homogenate, 3H-Oxotremorine 1.0 nM, 30 min at 25° C., pH 7.4
From the text: The pharmacological properties of the compounds of the invention can be illustrated by determining their capability to inhibit the specific binding of ^3 H-Oxotremorine-M (^3 H-Oxo). Birdsdall N. J. M., Hulme E. C., and Burgen A. S. V. (1980). "The Character of Muscarinic Receptors in Different Regions of the Rat Brain". Proc. Roy. Soc. London (Series B) 207,1.
^3 H-Oxo labels muscarinic receptor in the CNS (with a preference for agonist domains of the receptors). Three different sites are labelled by ^3 H-Oxo. […] Using the present experimental conditions only the high and medium affinity sites are determined.
The inhibitory effects of compounds on ^3 H-Oxo binding reflects the affinity for muscarinic acetylcholine receptors.
All preparations are performed at 0°-4° C. unless otherwise indicated. Fresh cortex (0.1-1 g) from male Wistar rats (150-250 g) is homogenized for 5-10 s in 10 ml 20 mM Hepes pH: 7.4, with an Ultra-Turrax homogenizer. The homogenizer, is rinsed with 10 ml of buffer and the combined suspension centrifuged for 15 min at 40,000×g. The pellet is washed three times with buffer. In each step the pellet is homogenized as before in 2×10 ml of buffer and centrifuged for 10 min at 40,000×g.
The final pellet is homogenized in 20 mM Hepes pH: 7.4 (100 ml per g of original tissue) and used for binding assay. Aliquots of 0.5 ml is added 25 μl of test solution and 25 μl of ^3 H-Oxotremorine (1.0 nM, final concentration) mixed and incubated for 30 min at 25° C. Non-specific binding is determined in triplicate using arecoline (1 μg/ml, final concentration) as the test substance. After incubation samples are added 5 ml of ice-cold buffer and poured directly onto Whatman GF/C glass fibre filters under suction and immediately washed 2 times with 5 ml of ice-cold buffer. The amount of radioactivity on the filters are determined by conventional liquid scintillation counting. Specific binding is total binding minus non specific binding.
Test substances are dissolved in 10 ml water (if necessary heated on a steam bath for less than 5 minutes) at a concentration of 2.2 mg/ml.
The test value will be given as IC50 (the concentration (ng/ml) of the test substance which inhibits the specific binding of ^3 H-Oxo by 50%).
IC50 =(applied test substance concentration) [formula] where Co is specific binding in control assays and Cx is the specific binding in the test assay. (The calculations assume normal mass-action kinetics).

| SMILES | Inhibition in vitro OXO BINDING IC50 | Inhibition in vitro OXO BINDING IC50 (L-tartrate) |
| --- | --- | --- |
| CC(C)CCCSc1nsnc1[C@H]1CN2CCC[C@@H]1C2 (relative stereo) [Compound 87, Endo-6-(3-isohexylthio-1,2,5-thiadiazol-4-yl)-1-azabicyclo[3.2.1]octane oxalate] | 10 ng/mL |  |
| c1ccc2sc(SCCCCSc3nsnc3C3CN4CCC3CC4)nc2c1 (stereo not drawn) [Compound 108, 3-(3-(4-(2-Benzothiazolyl)thio)butylthio-1,2,5-thiadiazol-4-yl)-1-azabicyclo[2.2.2]octane oxalate] | 16 ng/mL |  |
| ClC1=C(c2cnsn2)CN2CCCC1C2.O=C(O)C(=O)O (stereo not drawn) [Compound 65, 4-Chloro-3-(1,2,5-thiadiazol-4-yl)-1-azabicyclo[3.3.1]non-3-ene oxalate] | 9.6 ng/mL |  |
| c1ccc(CSc2nsnc2[C@H]2CN3CCC[C@H]2C3)cc1 (relative stereo) [Compound 134, Exo-6-(3-benzylthio-1,2,5-thiadiazol-4-yl)-1-azabicyclo[3.2.1]octane oxalate] | 0.47 ng/mL |  |
| N#Cc1ccc(CSc2nsnc2[C@H]2CN3CCC[C@H]2C3)cc1 (relative stereo) [Compound 82, Exo-6-(3-(4-cyanobenzylthio)-1,2,5-thiadiazol-4-yl)-1-azabicyclo[3.2.1]octane oxalate] | 0.40 ng/mL |  |
| CCCCCCCSc1nsnc1[C@H]1CN2CCC[C@H]1C2 (relative stereo) [Compound 75, Exo-6-(3-heptylthio-1,2,5-thiadiazol-4-yl)-1-azabicyclo[3.2.1]octane oxalate] | 0.96 ng/mL |  |
| CCCCSc1nsnc1C1CN2CCC1CC2.O=C(O)C(O)C(O)C(=O)O (single isomer, unassigned) [Compound 55, (-) 3-(3-Butylthio-1,2,5-thiadiazol-4-yl)-1-azabicyclo[2.2.2]octane (+) L-tartrate] |  | 0.43 ng/mL |
| CCCSc1nsnc1C1CN2CCC1CC2.O=C(O)C(=O)O (stereo not drawn) [Compound 53, 3-(3-Propylthio-1,2,5-thiadiazol-4-yl)-1-azabicyclo[2.2.2]octane oxalate] | 0.3 ng/mL |  |
| CCCCCSc1nsnc1C1CN2CCC1CC2.O=C(O)/C=C/C(=O)O (stereo not drawn) [Compound 12, 3-(3-Pentylthio-1,2,5-thiadiazol-4-yl)-1-azabicyclo[2.2.2]octane fumarate] | 0.45 ng/mL |  |
| CCCOc1nsnc1C1=C(Cl)C2CCCN(C1)C2 (stereo not drawn) [Compound 62, 4-Chloro-3-(3-propyloxy-1,2,5-thiadiazol-4-yl)-1-azabicyclo[3.3.1]non-3-eneoxalate] | 1.9 ng/mL |  |
| c1ccc(CSc2nsnc2[C@H]2CN3CCC[C@@H]2C3)cc1 (relative stereo) [Compound 88, Endo-6-(3-benzylthio-1,2,5-thiadiazol-4-yl)-1-azabicyclo[3.2.1]octane oxalate] | 6.1 ng/mL |  |
| COc1nsnc1[C@@H]1CN2CCC[C@@H]1C2 (relative stereo) [Compound 117, Exo-6-(3-methoxy-1,2,5-thiadiazol-4-yl)-1-azabicyclo[3.2.1]octane oxalate] | 2.0 ng/mL |  |
| COc1nsnc1C1(OC)CN2CCC1CC2.O=C(O)C(=O)O (stereo not drawn) [Compound 3, 3-Methoxy-3-(3-methoxy-1,2,5-thiadiazol-4-yl)-1-azabicyclo[2.2.2]octane oxalate] | 208 ng/mL |  |
| CCCCOc1nsnc1C1=C(Cl)C2CCCN(C1)C2.O=C(O)C(=O)O (stereo not drawn) [Compound 93, 4-Chloro-3-(3-butoxy-1,2,5-thiadiazol-4-yl)-1-azabicyclo[3.3.1]non-3-ene oxalate] | 9.0 ng/mL |  |
| CCCCS(=O)(=O)c1nsnc1[C@@H]1CN2CCC[C@@H]1C2 (relative stereo) [Compound 115, Exo-6-(3-butylsulfonyl-1,2,5-thiadiazol-4-yl)-1-azabicyclo[3.2.1]octane oxalate] | 0.50 ng/mL |  |
